Test results published in patent US6979686B1, “Substituted pyrazoles as p38 kinase inhibitors” (Pharmacia Corporation, priority 2001, dated 2005).
Read-outs that look alike come from different tables or passages of the source.

Biological target: T1, human p38 kinase alpha (Homo sapiens, UniProt Q16539)
T1 construct: GST (N, cleaved yes); made in house; host or cells: E. coli DH10B
Assay: p38 kinase in vitro assay, phosphorylation of biotinylated PHAS-I with 32P-ATP
Format: biochemical
Settings: for inhibition at 1 µM: read-out: P38 alpha kinase % inhib @ conc.

[1] = in vitro P38-alpha kinase, read-out: P38 alpha kinase IC50
[2] = in vitro P38-alpha kinase inhibition, read-out: P38 alpha kinase IC50

T1 sequence (Q16539 whole entry): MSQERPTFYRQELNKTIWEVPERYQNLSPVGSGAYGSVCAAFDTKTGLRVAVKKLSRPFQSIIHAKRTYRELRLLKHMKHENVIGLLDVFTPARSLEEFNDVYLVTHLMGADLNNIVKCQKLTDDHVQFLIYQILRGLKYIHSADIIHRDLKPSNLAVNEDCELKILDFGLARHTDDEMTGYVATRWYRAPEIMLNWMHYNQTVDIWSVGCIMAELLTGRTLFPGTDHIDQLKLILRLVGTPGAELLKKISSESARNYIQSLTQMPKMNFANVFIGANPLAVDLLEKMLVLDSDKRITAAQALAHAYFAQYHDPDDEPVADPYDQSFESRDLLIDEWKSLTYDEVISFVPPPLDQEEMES

Row | Compound | IC50 [1] [nM] | IC50 [2] [nM] | further results
1 | O=C(c1ccc(C(F)(F)F)cc1)N1CCC(c2[nH]nc(-c3ccc(F)cc3)c2-c2ccncc2)CC1 [Example B-1390] | < 100 | – | –
2 | O=C(NCCCc1[nH]nc(-c2ccc(F)cc2)c1-c1ccncc1)c1cccc(F)c1F [Example B-1347] | 21 | – | –
3 | N#Cc1cccc(C(=O)NCCCc2[nH]nc(-c3ccc(F)cc3)c2-c2ccncc2)c1 [Example B-1328] | 32 | – | –
4 | O=S(=O)(NCCc1[nH]nc(-c2ccc(F)cc2)c1-c1ccncc1)c1ccc(F)cc1Cl [Example B-1077] | – | < 100 | –
5 | Cc1c(-c2ccncc2)c(-c2ccc(F)cc2)nn1CC(=O)Nc1ccc(C(F)(F)F)cc1 [Example B-2439] | – | – | P38 alpha kinase IC50, uM or % inhib @ conc. (uM): % inhib (@ 10.0 uM): 81.0% @
6 | O=S(=O)(NCCc1[nH]nc(-c2ccc(F)cc2)c1-c1ccncc1)c1cc(S(=O)(=O)c2ccccc2)cs1 [Example B-1112] | – | 580 | –
7 | CCOC(=O)NCCc1[nH]nc(-c2ccc(F)cc2)c1-c1ccncc1 [Example B-1054] | – | – | P38 alpha kinase % inhib @ conc. (uM) (@ 1.0 uM): 79.0% @
8 | O=C(NCCc1[nH]nc(-c2ccc(F)cc2)c1-c1ccncc1)c1cc(C(F)(F)F)ccc1F [Example B-1134] | – | 1710 | –
9 | O=C(c1ccccc1)N1CCC(c2[nH]nc(-c3ccc(F)cc3)c2-c2ccncc2)CC1 [Example B-1385] | < 100 | – | –
10 | O=C(c1cccnc1)N1CCC(c2[nH]nc(-c3ccc(F)cc3)c2-c2ccncc2)CC1 [Example B-1387] | < 100 | – | –
11 | Cc1c(-c2ccncc2)c(-c2ccc(F)cc2)nn1CC(=O)Nc1ccccc1C(=O)NC1CCCCC1 [Example B-2451] | – | – | P38 alpha kinase IC50, uM or % inhib @ conc. (uM): % inhib (@ 10.0 uM): 87.0% @
12 | O=S(=O)(NCCc1[nH]nc(-c2ccc(F)cc2)c1-c1ccncc1)c1ccccc1Br [Example B-1082] | – | < 100 | –
13 | COc1cccc(NC(=O)NCCc2[nH]nc(-c3ccc(F)cc3)c2-c2ccncc2)c1 [Example B-0948] | – | – | P38 alpha kinase % inhib @ conc. (uM) (@ 1.0 uM): 68.0% @
14 | CCCOC(=O)NC(C)c1[nH]nc(-c2ccc(F)cc2)c1-c1ccncc1 (stereo not drawn) [Example B-0602] | – | 970 | –
15 | COc1cc(NC(=O)NCCc2[nH]nc(-c3ccc(F)cc3)c2-c2ccncc2)cc(OC)c1OC [Example B-0979] | – | – | P38 alpha kinase % inhib @ conc. (uM) (@ 10.0 uM): 56.0% @
16 | Cc1ccc(S(=O)(=O)NCCNC(=O)Cn2nc(-c3ccc(F)cc3)c(-c3ccncc3)c2C)cc1 [Example B-2299] | 1970 | – | –
17 | O=C(NCCCc1[nH]nc(-c2ccc(F)cc2)c1-c1ccncc1)c1cccc(C(F)(F)F)c1F [Example B-1339] | 120 | – | –
18 | CC(=O)NC(Cc1ccccc1)c1[nH]nc(-c2ccc(F)cc2)c1-c1ccncc1 (stereo not drawn) [Example B-0803] | – | 57 | –
19 | Cc1c(-c2ccncc2)c(-c2ccc(F)cc2)nn1CC(=O)N(Cc1ccco1)CC(C)C [Example B-2378] | – | – | P38 alpha kinase % inhib @ conc. (@ 10.0 uM): 48.0% @
20 | Cc1c(-c2ccncc2)c(-c2ccc(F)cc2)nn1CC(=O)NC1CCSC1=O (stereo not drawn) [Example B-2323] | – | – | P38 alpha kinase % inhib @ conc. (@ 10.0 uM): 69.0% @
21 | O=S(=O)(c1ccccc1OC(F)(F)F)N1CCC(c2[nH]nc(-c3ccc(F)cc3)c2-c2ccncc2)CC1 [Example B-1463] | 2340 | – | –
22 | C=CCNC(=O)NC(Cc1ccccc1)c1[nH]nc(-c2ccc(F)cc2)c1-c1ccncc1 (stereo not drawn) [Example B-0734] | – | 920 | –
23 | O=C(c1cc(F)ccc1F)N1CCC(c2[nH]nc(-c3ccc(F)cc3)c2-c2ccncc2)CC1 [Example B-1402] | 120 | – | –

Row | Compound | IC50 [1] [nM] | IC50 [2] [nM] | further results
24 | CC(NC(=O)c1ccccc1C(F)(F)F)c1[nH]nc(-c2ccc(F)cc2)c1-c1ccncc1 (stereo not drawn) [Example B-0545] | – | 1060 | –
25 | O=S(=O)(NCCc1[nH]nc(-c2ccc(F)cc2)c1-c1ccncc1)c1ccc(-c2ccccc2)cc1 [Example B-1109] | – | 54 | –
26 | O=C(NCc1ccc(S(=O)(=O)NCCCc2[nH]nc(-c3ccc(F)cc3)c2-c2ccncc2)s1)c1ccccc1 [Example B-1285] | 57 | – | –
27 | CC(NS(=O)(=O)c1cccc2cnccc12)c1[nH]nc(-c2ccc(F)cc2)c1-c1ccncc1 (stereo not drawn) [Example B-0667] | – | 830 | –
28 | Cc1c(-c2ccncc2)c(-c2ccc(F)cc2)nn1CC(=O)NC1CCCCC1 [Example B-2347] | – | – | P38 alpha kinase % inhib @ conc. (@ 10.0 uM): 49.0% @
29 | CC(NC(=O)c1ccc(Cl)cc1)c1[nH]nc(-c2ccc(F)cc2)c1-c1ccncc1 (stereo not drawn) [Example B-0670] | – | 3150 | –
30 | CCNC(=O)NC(C)c1[nH]nc(-c2ccc(F)cc2)c1-c1ccncc1 (stereo not drawn) [Example B-0598] | – | 2120 | –
31 | O=C(NC(Cc1ccccc1)c1[nH]nc(-c2ccc(F)cc2)c1-c1ccncc1)C1CCC1 (stereo not drawn) [Example B-0804] | – | 300 | –
32 | O=S(=O)(NCCc1[nH]nc(-c2ccc(F)cc2)c1-c1ccncc1)c1ccc(Cl)cc1 [Example B-1061] | – | 30 | –
33 | Cc1c(-c2ccncc2)c(-c2ccc(F)cc2)nn1CC(=O)Nc1ccc(Cl)cc1 [Example B-2418] | – | – | P38 alpha kinase IC50, uM or % inhib @ conc. (uM): % inhib (@ 10.0 uM): 88.0% @
34 | O=C(c1cccc(Cl)c1Cl)N1CCC(c2[nH]nc(-c3ccc(F)cc3)c2-c2ccncc2)CC1 [Example B-1416] | 140 | – | –
35 | O=C(NCCc1[nH]nc(-c2ccc(F)cc2)c1-c1ccncc1)Nc1cccc(F)c1 [Example B-1046] | – | – | P38 alpha kinase % inhib @ conc. (uM) (@ 1.0 uM): 72.0% @
36 | O=S(=O)(NC(Cc1ccccc1)c1[nH]nc(-c2ccc(F)cc2)c1-c1ccncc1)c1ccc(F)cc1F (stereo not drawn) [Example B-0712] | – | 2900 | –
37 | O=C(NC(Cc1ccccc1)c1[nH]nc(-c2ccc(F)cc2)c1-c1ccncc1)C1CCCN1 (stereo not drawn) [Example B-0749] | – | 4400 | –
38 | CC(C)COC(=O)NCCc1[nH]nc(-c2ccc(F)cc2)c1-c1ccncc1 [Example B-1010] | – | – | P38 alpha kinase % inhib @ conc. (uM) (@ 1.0 uM): 75.0% @
39 | COc1ccc(S(=O)(=O)NCCCc2[nH]nc(-c3ccc(F)cc3)c2-c2ccncc2)cc1 [Example B-1202] | – | – | P38 alpha kinase % inhib @ conc. (@ 1.0 uM): 71.0% @
40 | C[C@@H](NS(=O)(=O)c1cccc(Cl)c1Cl)c1[nH]nc(-c2ccc(F)cc2)c1-c1ccncc1 [Example B-0445] | – | < 100 | –
41 | O=C(NCCCc1[nH]nc(-c2ccc(F)cc2)c1-c1ccncc1)c1c(F)cccc1C(F)(F)F [Example B-1338] | 180 | – | –
42 | COc1ccc(S(=O)(=O)NC(Cc2ccccc2)c2[nH]nc(-c3ccc(F)cc3)c2-c2ccncc2)cc1 (stereo not drawn) [Example B-0764] | – | 670 | –
43 | O=S(=O)(NCCCc1[nH]nc(-c2ccc(F)cc2)c1-c1ccncc1)c1cccc2ccccc12 [Example B-1246] | 270 | – | –
44 | Cc1c(-c2ccncc2)c(-c2ccc(F)cc2)nn1CC(=O)N(C)CCc1ccncc1 [Example B-2386] | – | – | P38 alpha kinase IC50, uM or % inhib @ conc. (uM): % inhib (@ 10.0 uM): 38.0% @
45 | CC(NS(=O)(=O)CC12CCC(CC1=O)C2(C)C)c1[nH]nc(-c2ccc(F)cc2)c1-c1ccncc1 (stereo not drawn) [Example B-0611] | – | 650 | –
46 | Cc1c(-c2ccncc2)c(-c2ccc(F)cc2)nn1CC(=O)NC1CC1 [Example B-2341] | – | – | P38 alpha kinase % inhib @ conc. (@ 10.0 uM): 75.0% @

Row | Compound | IC50 [1] [nM] | IC50 [2] [nM] | further results
47 | Cc1c(-c2ccncc2)c(-c2ccc(F)cc2)nn1CC(=O)NCCCN1CCCC1=O [Example B-2280] | 400 | – | –
48 | COc1ccc(S(=O)(=O)NCCc2[nH]nc(-c3ccc(F)cc3)c2-c2ccncc2)cc1 [Example B-1025] | – | – | P38 alpha kinase % inhib @ conc. (uM) (@ 1.0 uM): 61.0% @
49 | O=C(NCCCc1[nH]nc(-c2ccc(F)cc2)c1-c1ccncc1)c1ccc(Cl)cc1 [Example B-1322] | 120 | – | –
50 | O=S(=O)(NCCCc1[nH]nc(-c2ccc(F)cc2)c1-c1ccncc1)c1ccc(-c2ccccc2)cc1 [Example B-1286] | 150 | – | –
51 | CCOC(=O)NC(C)c1[nH]nc(-c2ccc(F)cc2)c1-c1ccncc1 (stereo not drawn) [Example B-0603] | – | 90 | –
52 | Cc1cccc(Cl)c1S(=O)(=O)NCCCc1[nH]nc(-c2ccc(F)cc2)c1-c1ccncc1 [Example B-1272] | 14 | – | –
53 | CNC(=O)N1CCC(c2[nH]nc(-c3ccc(F)cc3)c2-c2ccncc2)CC1 [Example B-1378] | 20 | – | –
54 | Cc1ccc(S(C)(=O)=O)cc1S(=O)(=O)NCCCc1[nH]nc(-c2ccc(F)cc2)c1-c1ccncc1 [Example B-1296] | 38 | – | –
55 | COc1cccc(CC(=O)NCc2[nH]nc(-c3ccc(F)cc3)c2-c2ccncc2)c1 [Example B-0040] | – | – | inhibition at 1 µM (@ 1.0 uM): 93%
56 | O=C(c1n[nH]c(-c2ccc(F)cc2)c1-c1ccncc1)N1CCNCC1 [A-314, Step 1, 1-[[5-(4-fluorophenyl)-4-(4-pyridinyl)-1H-pyrazol-3-yl]carbonyl]piperazine, monhydrate] | – | – | IC50 (Table 8, 1% DMSO, read-out: p38α Kinase Assay IC50): 850 nM
57 | CC(NC(=O)C1CC1)c1[nH]nc(-c2ccc(F)cc2)c1-c1ccncc1 (stereo not drawn) [Example B-0538] | – | 1130 | –
58 | Cc1c(-c2ccncc2)c(-c2ccc(F)cc2)nn1CC(=O)NCc1cccc2ccccc12 [Example B-2285] | 2290 | – | –
59 | O=C(c1c(F)cccc1F)N1CCC(c2[nH]nc(-c3ccc(F)cc3)c2-c2ccncc2)CC1 [Example B-1401] | 33 | – | –
60 | CC(NC(=O)c1cc(C(F)(F)F)ccc1F)c1[nH]nc(-c2ccc(F)cc2)c1-c1ccncc1 (stereo not drawn) [Example B-0683] | – | 13000 | –
61 | N#Cc1ccc(C(=O)N2CCC(c3[nH]nc(-c4ccc(F)cc4)c3-c3ccncc3)CC2)cc1 [Example B-1392] | 59 | – | –
62 | Cc1c(-c2ccncc2)c(-c2ccc(F)cc2)nn1CC(=O)N1CCSC1 [Example B-2383] | – | – | P38 alpha kinase % inhib @ conc. (@ 10.0 uM): 63.0% @
63 | O=C(c1c(F)cccc1C(F)(F)F)N1CCC(c2[nH]nc(-c3ccc(F)cc3)c2-c2ccncc2)CC1 [Example B-1404] | 600 | – | –
64 | CC(NS(=O)(=O)c1ccc(CNC(=O)c2ccccc2)s1)c1[nH]nc(-c2ccc(F)cc2)c1-c1ccncc1 (stereo not drawn) [Example B-0657] | – | 170 | –
65 | CCCNC(=O)NCCCc1[nH]nc(-c2ccc(F)cc2)c1-c1ccncc1 [Example B-1218] | – | – | P38 alpha kinase % inhib @ conc. (@ 1.0 uM): 88.0% @
66 | Cc1cc(C)c(C(=O)NC(C)c2[nH]nc(-c3ccc(F)cc3)c2-c2ccncc2)c(C)c1 (stereo not drawn) [Example B-0682] | – | 760 | –
67 | COCCNC(=O)Cn1nc(-c2ccc(F)cc2)c(-c2ccncc2)c1C [Example B-2292] | 8820 | – | –
68 | C[C@@H](NS(=O)(=O)/C=C/c1ccccc1)c1[nH]nc(-c2ccc(F)cc2)c1-c1ccncc1 [Example B-0388] | < 100 | – | –
69 | O=C(NCc1[nH]nc(-c2ccc(F)cc2)c1-c1ccncc1)C(=O)c1c[nH]c2ccccc12 [Example B-0018] | – | – | inhibition at 1 µM (@ 1.0 uM): 60%
